Laboratory results as given in US11447487B2, “Spiroheptanyl hydantoins as rock inhibitors” (BRISTOL-MYERS SQUIBB COMPANY, priority 2017, dated 2022).

What follows are compounds tested against ROCK2 (Homo sapiens (Human), UniProt O75116) (assay: ROCK assay (Caliper LABCHIP peptide phosphorylation)). Details: 5 μM ATP, 1.5 μM peptide substrate.
Assay type: biochemical
Description: The effectiveness of compounds of the present invention as ROCK inhibitors can be determined in a 30 μL assay containing 20 mM HEPES, pH 7.5, 20 mM MgCl2, 0.015% Brij-35, 4 mM DTT, 5 μM ATP and 1.5 μM peptide substrate (FITC-AHA-AKRRRLSSLRA-OH) (SEQ ID No. 1). Compounds were dissolved in DMSO so that the final concentration of DMSO was <2%, and the reaction was initiated with Rho kinase variants. After incubation, the reaction was terminated by the addition of EDTA and the phosphorylated and non-phosphorylated peptides separated using a LABCHIP® 3000 Reader (Caliper Life Sciences). […] Compounds were tested in dose-response format, and the inhibition of kinase activity was calculated at each concentration of compound. The inhibition data were fit using a curve-fitting program to determine the IC50; i.e., the concentration of compound required to inhibit 50% of kinase activity. Representative Examples were tested in the ROCK assay described above and found having ROCK inhibitory activity. A range of ROCK inhibitory activity (IC50 values) of ≤50 μM (50000 nM) was observed. Table A below lists the ROCK IC50 values measured for the following examples.

Sequence of ROCK2 (O75116 whole entry, species assumed): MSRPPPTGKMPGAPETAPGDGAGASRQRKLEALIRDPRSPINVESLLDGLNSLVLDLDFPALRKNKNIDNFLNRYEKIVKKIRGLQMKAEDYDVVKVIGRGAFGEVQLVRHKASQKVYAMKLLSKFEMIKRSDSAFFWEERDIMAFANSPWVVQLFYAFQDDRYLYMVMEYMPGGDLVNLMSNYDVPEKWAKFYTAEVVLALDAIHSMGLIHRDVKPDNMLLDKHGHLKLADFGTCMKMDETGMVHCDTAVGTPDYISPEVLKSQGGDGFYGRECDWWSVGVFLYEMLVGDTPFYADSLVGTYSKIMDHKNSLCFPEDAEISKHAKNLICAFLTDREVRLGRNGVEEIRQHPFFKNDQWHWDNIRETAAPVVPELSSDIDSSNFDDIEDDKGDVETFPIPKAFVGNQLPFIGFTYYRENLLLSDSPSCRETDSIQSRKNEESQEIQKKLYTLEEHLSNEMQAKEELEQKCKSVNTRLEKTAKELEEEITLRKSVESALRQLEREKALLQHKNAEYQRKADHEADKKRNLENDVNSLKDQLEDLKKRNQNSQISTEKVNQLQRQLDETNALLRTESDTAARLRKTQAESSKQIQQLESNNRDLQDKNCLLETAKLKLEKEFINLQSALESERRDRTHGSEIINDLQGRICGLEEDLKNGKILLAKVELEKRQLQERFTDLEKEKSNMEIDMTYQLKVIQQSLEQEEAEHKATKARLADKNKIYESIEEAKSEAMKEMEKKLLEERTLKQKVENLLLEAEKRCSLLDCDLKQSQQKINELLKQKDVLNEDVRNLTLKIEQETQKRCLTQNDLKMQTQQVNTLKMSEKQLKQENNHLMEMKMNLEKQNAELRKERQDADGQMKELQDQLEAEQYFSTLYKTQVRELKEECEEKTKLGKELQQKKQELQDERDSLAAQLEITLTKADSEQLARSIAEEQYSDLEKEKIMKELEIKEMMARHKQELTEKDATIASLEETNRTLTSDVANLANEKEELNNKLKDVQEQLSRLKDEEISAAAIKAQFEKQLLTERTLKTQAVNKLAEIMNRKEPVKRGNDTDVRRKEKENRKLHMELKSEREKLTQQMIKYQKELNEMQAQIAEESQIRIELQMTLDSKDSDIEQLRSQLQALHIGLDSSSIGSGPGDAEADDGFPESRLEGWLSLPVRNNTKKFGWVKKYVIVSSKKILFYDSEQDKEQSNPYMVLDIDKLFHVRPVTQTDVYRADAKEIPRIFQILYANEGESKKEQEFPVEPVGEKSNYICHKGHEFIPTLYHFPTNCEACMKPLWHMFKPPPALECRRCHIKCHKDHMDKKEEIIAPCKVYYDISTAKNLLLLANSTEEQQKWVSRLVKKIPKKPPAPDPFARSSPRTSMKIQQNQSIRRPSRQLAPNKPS

`NC(=O)c1cccnc1O[C@H]1C[C@]2(C1)C[C@H](N1C(=O)NC(CC3CCCO3)C1=O)C2` (single isomer, unassigned) [Example 64, 2-{[(αR)-6-{2,5-dioxo-4-[(oxolan-2-yl)methyl]-imidazolidin-1-yl}-spiro[3.3]heptan-2-yl]oxy}pyridine-3-carboxamide] and `C#CCC1NC(=O)N([C@H]2C[C@@]3(C[C@H](Oc4ncccc4C(N)=O)C3)C2)C1=O` (some centres unmarked) [Example 14, 2-{[(αR)-6-[2,5-dioxo-4-(prop-2-yn-1-yl)imidazol-idin-1-yl]spiro-[3.3]heptan-2-yl]oxy}pyridine-3-carboxamide] are within 1.5-fold of each other in IC50: 802 nM for the first, 562 nM for the second.

Compared with `NC(=O)c1cccnc1O[C@H]1C[C@]2(C1)C[C@H](N1C(=O)NC3(CCC3)C1=O)C2` (some centres unmarked) [Example 16, 2-{[(αR)-6-{6,8-dioxo-5,7-diaza-spiro[3.4]octan-7-yl}spiro[3.3]-heptan-2-yl]oxy}-pyridine-3-carbox-amide], `NC(=O)c1cccnc1O[C@H]1C[C@]2(C1)C[C@H](N1C(=O)NC(CCCC(F)(F)F)C1=O)C2` (single isomer, unassigned) [Example 42, 2-{[(αR)-6-[2,5-dioxo-4-(4,4,4-trifluorobutyl)-imidazolidin-1-yl]-spiro[3.3]heptan-2-yl]oxy}pyridine-3-carboxamide] is 41-fold lower in IC50: 902 nM for the first, 22 nM for the second.

First: 2-((((R)-6-(4-((1-adamantyl)methyl)-2,5-dioxoimidazolidin-1-yl)spiro[3.3]heptan-2-yl)oxy)nicotinamide [Example 68]
Second: NC(=O)c1cccnc1O[C@H]1C[C@]2(C1)C[C@H](N1C(=O)NC(CCC(F)(F)F)C1=O)C2 (some centres unmarked) [Example 49, 2-{[(αR)-6-[2,5-dioxo-4-(3,3,3-trifluoropropyl)-imidazolidin-1-yl]-spiro[3.3]heptan-2-yl]oxy}pyridine-3-carboxamide]
The IC50 of the first is 5.8-fold lower: 17 nM for the first, 99 nM for the second.

`CSCC[C@@H]1NC(=O)N([C@H]2C[C@@]3(C[C@H](Oc4ncccc4C(N)=O)C3)C2)C1=O` (stereo partly drawn) [Example 30, 2-{[(αR)-6-[(4S)-4-[2-(methyl-sulfanyl)ethyl]-2,5-dioxoimidazol-idin-1-yl]spiro-[3.3]heptan-2-yl]-oxy}pyridine-3-carboxamide] and `NC(=O)c1cccnc1O[C@H]1C[C@]2(C1)C[C@H](N1C(=O)NC(CC3CCCCC3)C1=O)C2` (single isomer, unassigned) [Example 6, 2-{[(αR)-6-(4-cyclohexylmethyl-2,5-dioxoimidazol-idin-1-yl)spiro-[3.3]heptan-2-yl]-oxy}pyridine-3-carboxamide] are within 1.5-fold of each other in IC50: 89 nM for the first, 91 nM for the second.

First: NC(=O)c1cccnc1O[C@H]1C[C@]2(C1)C[C@H](N1C(=O)NC(CC3CC4CCC3CC4)C1=O)C2 (some centres unmarked) [Example 70, 2-{[(αR)-6-[4-({bicyclo[2.2.2]-octan-2-yl}-methyl)-2,5-dioxo-imidazolidin-1-yl]spiro[3.3]-heptan-2-yl]oxy}-pyridine-3-carbox-amide]
Second: CC(C)(C)OC(=O)NCCC1NC(=O)N([C@H]2C[C@@]3(C[C@H](Oc4ncccc4C(N)=O)C3)C2)C1=O (single isomer, unassigned) [Example 20, tert-butyl N-(2-{2,5-dioxo-1-[(αR)-6-[(3-carbamoylpyridin-2-yl)oxy]spiro-[3.3]heptan-2-yl]-imidazolidin-4-yl}ethyl)carbamate]
The IC50 of the first is 86-fold lower: 20 nM for the first, 1710 nM for the second. The first is the more potent here.

Compared with `C=CC[C@@H]1CC(=O)N([C@H]2C[C@@]3(C[C@H](Oc4ncccc4C(N)=O)C3)C2)C(=O)N1` (stereo partly drawn) [Example 78, 2-{[(αR)-6-[(4R)-2,6-dioxo-4-(prop-2-en-1-yl)-1,3-diazinan-1-yl]-spiro[3.3]heptan-2-yl]oxy}pyridine-3-carboxamide], `CC(C)(C)OC(=O)NCCC1NC(=O)N([C@H]2C[C@@]3(C[C@H](Oc4ncccc4C(N)=O)C3)C2)C1=O` (single isomer, unassigned) [Example 21, tert-butyl N-(2-{2,5-dioxo-1-[(αR)-6-[(3-carbamoylpyridin-2-yl)oxy]spiro-[3.3]heptan-2-yl]-imidazolidin-4-yl}ethyl)carbamate] is 2.5-fold higher in IC50: 963 nM for the first, 2380 nM for the second.

Going from `NC(=O)c1cccnc1O[C@H]1C[C@]2(C1)C[C@H](N1C(=O)NC(CC3CC(F)(F)C3)C1=O)C2` (some centres unmarked) [Example 46, 2-{[(αR)-6-{4-[(3,3-difluorocyclo-butyl)methyl]-2,5-dioxoimidazolidin-1-yl}spiro[3.3]-heptan-2-yl]oxy}-pyridine-3-carbox-amide] to `CCC(C)CC1NC(=O)N([C@H]2C[C@@]3(C[C@H](Oc4ncccc4C(N)=O)C3)C2)C1=O` (some centres unmarked) [Example 41, 2-{[(αR)-6-[4-(2-methylbutyl)-2,5-dioxoimidazolidin-1-yl]spiro[3.3]-heptan-2-yl]oxy}-pyridine-3-carbox-amide], the IC50 falls from 48 nM to 19 nM (2.5-fold). The second is the more potent here.

`NC(=O)c1cccnc1O[C@H]1C[C@]2(C1)C[C@H](N1C(=O)NC(CCOCC(F)(F)F)C1=O)C2` (single isomer, unassigned) [Example 50, 2-{[(αR)-6-{2,5-dioxo-4-[2-(2,2,2-trifluoroethoxy)-ethyl]imidazolidin-3-yl}spiro[3.3]-heptan-2-yl]oxy}-pyridine-3-carbox-amide] and `CCCC[C@@H]1NC(=O)N([C@H]2C[C@@]3(C[C@H](Oc4ncccc4C(N)=O)C3)C2)C1=O` (stereo partly drawn) [Example 28, 2-{[(αR)-6-[(4S)-4-butyl-2,5-dioxo-imidazolidin-1-yl]spiro[3.3]heptan-2-yl]oxy}pyridine-3-carboxamide] are within 1.5-fold of each other in IC50: 62 nM for the first, 57 nM for the second.

Going from `NC(=O)c1cccnc1O[C@H]1C[C@]2(C1)C[C@H](N1C(=O)C(=O)N(CC3CCC3)C1=O)C2` (some centres unmarked) [Example 63, 2-{[(αR)-6-[3-(cyclobutyl-methyl)-2,4,5-tri-oxoimidazolidin-1-yl]spiro[3.3]-heptan-2-yl]oxy}-pyridine-3-carbox-amide] to `NC(=O)c1cccnc1O[C@H]1C[C@]2(C1)C[C@H](N1C(=O)CN(CCc3ccccc3)C1=O)C2` (some centres unmarked) [Example 11], the IC50 falls from 617 nM to 225 nM (2.7-fold).

Going from `NC(=O)c1cccnc1O[C@H]1C[C@]2(C1)C[C@H](N1C(=O)NC(CCO)C1=O)C2` (some centres unmarked) [Example 18, 2-{[(αR)-6-[2,5-dioxo-4-(2-hydroxyethyl)-imidazolidin-1-yl]spiro[3.3]-heptan-2-yl)oxy}-pyridine-3-carboxamide] to `NC(=O)c1cccnc1O[C@H]1C[C@]2(C1)C[C@H](N1C(=O)CN(c3ccc(Oc4ccccc4)cc3)C1=O)C2` (some centres unmarked) [Example 83, 2-(((αR)-6-(2,5-dioxo-3-(4-phenoxyphenyl)imidazolidin-1-yl)spiro[3.3]heptan-2-yl)oxy)nicotinamide], the IC50 falls from 1500 nM to 9 nM (170-fold).

Compared with `CC(C)CC1NC(=O)N([C@H]2C[C@@]3(C[C@H](Oc4ncccc4C(N)=O)C3)C2)C1=O` (some centres unmarked) [Example 44, 2-{[(αR)-6-[4-(2-methylpropyl)-2,5-dioxoimidazolidin-1-yl]spiro[3.3]-heptan-2-yl]oxy}-pyridine-3-carbox-amide], `CCCC(C)CC1NC(=O)N([C@H]2C[C@@]3(C[C@H](Oc4ncccc4C(N)=O)C3)C2)C1=O` (some centres unmarked) [Example 39, 2-{[(αR)-6-[4-(2-methylpentyl)-2,5-dioxoimidazolidin-1-yl]spiro[3.3]-heptan-2-yl]oxy}-pyridine-3-carbox-amide] is 2.1-fold lower in IC50: 29 nM for the first, 14 nM for the second.

Work on `CCC(CC)CC1NC(=O)N([C@H]2C[C@@]3(C[C@H](Oc4ncccc4C(N)=O)C3)C2)C1=O` (single isomer, unassigned) [Example 48, 2-{[(αR)-6-[4-(2-ethylbutyl)-2,5-dioxoimidazolidin-1-yl]spiro[3.3]-heptan-2-yl]oxy}-pyridine-3-carbox-amide] yielded an IC50 of 56 nM.
